From article PMC4684330, “Potentiation of Neuronal Nicotinic Receptors by 17β-Estradiol: Roles of the Carboxy-Terminal and the Amino-Terminal Extracellular Domains” (PLoS ONE, 2015)
Where two headings read alike, the source gives them in different places.

Legend:
α4&β4 20:1 [1] = target: T1, α4&β4 20:1 (Homo sapiens, UniProt P43681+Q8R493); test: two-electrode voltage clamp, potentiation of ACh current, Hill fit; format: cell-based; details: with ACh giving about 5-7% of maximal; pH 7.3, Ba2+ saline; allosteric potentiator; paper urges circumspection (solubility, block at high concentrations)
T1 construct: gene CHRNA4; full coding regions, cRNA 20:1 alpha:beta in Xenopus oocytes, pentamer 3alpha:2beta, mixed species

α4&β4 20:1 [2] = target: T2, α4&β4 20:1 (Homo sapiens, UniProt P43681+Q8R493, P43681:W622F); test: as above; format: cell-based; details: with ACh giving about 5-7% of maximal; pH 7.3, Ba2+ saline; allosteric potentiator; paper urges circumspection (solubility, block at high concentrations)
T2 construct: gene CHRNA4; full coding regions, cRNA 20:1 alpha:beta in Xenopus oocytes, pentamer 3alpha:2beta, mixed species

α4(α2DtoA)&β4 [3] = test system: T3, α4(α2DtoA)&β4; test: two-electrode voltage clamp, agonist activation, Hill fit; format: cell-based, Homo sapiens; Mus musculus; details: no steroid, pH 7.3, Ba2+ saline, cRNA 20:1, read-out: ACh EC50
T3 construct: gene CHRNA4; cRNA 20:1, oocytes, 3alpha:2beta

α(2.2.4.W)&β2 = test system: T4, α(2.2.4.W)&β2; test: as above; format: cell-based, Mus musculus; Homo sapiens; details: no steroid, pH 7.3, Ba2+ saline, cRNA 8:1, read-out: ACh EC50
T4 construct: gene Chrna2; one alpha polypeptide: alpha2 to start of TM4, alpha4 TM4, tail WLAGMI; with wild-type beta2, cRNA 8:1, oocytes, 3alpha:2beta
Source text: two-electrode voltage clamp, agonist activation, Hill fit on α(2.2.4.W)&β2

α(4.4.2.F)&β2 = test system: T5, α(4.4.2.F)&β2; test: as above; format: cell-based, Homo sapiens; Mus musculus; details: no steroid, pH 7.3, Ba2+ saline, cRNA 8:1, read-out: ACh EC50
T5 construct: gene CHRNA4; one alpha polypeptide: alpha4 to D(571)RIFL, alpha2 TM4, tail FLAGMI; with wild-type beta2, cRNA 8:1, oocytes, 3alpha:2beta
Source text: two-electrode voltage clamp, agonist activation, Hill fit on α(4.4.2.F)&β2

α(2.4.4.W)&β4 = test system: T6, α(2.4.4.W)&β4; test: as above; format: cell-based, Mus musculus; Homo sapiens; details: no steroid, pH 7.3, Ba2+ saline, cRNA 20:1, read-out: ACh EC50
T6 construct: gene Chrna2; alpha2 N-terminal domain and alpha4 remainder are one polypeptide, tail WLAGMI; cRNA 20:1, oocytes, 3alpha:2beta
Source text: two-electrode voltage clamp, agonist activation, Hill fit on α(2.4.4.W)&β4

α2(W)(α4DtoA)&β4 = test system: T7, α2(W)(α4DtoA)&β4; test: as above; format: cell-based, Mus musculus; Homo sapiens; details: no steroid, pH 7.3, Ba2+ saline, cRNA 20:1, read-out: ACh EC50
T7 construct: gene Chrna2; one alpha polypeptide: alpha2(W) carrying alpha4 MMT(57)-IVL(97); cRNA 20:1, oocytes, 3alpha:2beta
Source text: two-electrode voltage clamp, agonist activation, Hill fit on α2(W)(α4DtoA)&β4

α(4.2.2.F)&β4 = test system: T8, α(4.2.2.F)&β4; test: as above; format: cell-based, Homo sapiens; Mus musculus; details: no steroid, pH 7.3, Ba2+ saline, cRNA 20:1, read-out: ACh EC50
T8 construct: gene CHRNA4; alpha4 and alpha2 parts are one polypeptide: alpha4 N-terminus to V(210)IRRLP, rest alpha2 (TM1-TM3 identical), tail FLAGMI; cRNA 20:1, oocytes, 3alpha:2beta
Source text: two-electrode voltage clamp, agonist activation, Hill fit on α(4.2.2.F)&β4

α(2.2.4.W)&β2(WLAGMI) = test system: T9, α(2.2.4.W)&β2(WLAGMI); test: as above; format: cell-based, Mus musculus; Homo sapiens; details: no steroid, pH 7.3, Ba2+ saline, cRNA 8:1, read-out: ACh EC50
T9 construct: gene Chrna2
Source text: two-electrode voltage clamp, agonist activation, Hill fit on α(2.2.4.W)&β2(WLAGMI)

α4&β4 20:1 [4] = target: T10, α4&β4 20:1 (Homo sapiens, UniProt P43681+Q8R493, P43681:L623W/P43681:W622F); test: cell-based
T10 construct: gene CHRNA4
Source text: (§1) two-electrode voltage clamp, agonist activation, Hill fit on α4&β4 20:1

α4&β4 20:1 [5] = target: T11, α4&β4 20:1 (Homo sapiens, UniProt P43681+Q8R493, P43681:W622K); test: cell-based
T11 construct: gene CHRNA4
Source text: as §1

α4(F)(α2DtoA+E)&β4 = test system: T12, α4(F)(α2DtoA+E)&β4; test: two-electrode voltage clamp, agonist activation, Hill fit; format: cell-based, Homo sapiens; Mus musculus; details: no steroid, pH 7.3, Ba2+ saline, cRNA 20:1, read-out: ACh EC50
T12 construct: gene CHRNA4; cRNA 20:1, oocytes, 3alpha:2beta

α(2.2.4.W)&β4 = test system: T13, α(2.2.4.W)&β4; test: as above; format: cell-based, Mus musculus; Homo sapiens; details: no steroid, pH 7.3, Ba2+ saline, cRNA 20:1, read-out: ACh EC50
T13 construct: gene Chrna2; alpha2 to start of TM4 and alpha4 TM4 are one polypeptide, tail WLAGMI; cRNA 20:1, oocytes, 3alpha:2beta
Source text: two-electrode voltage clamp, agonist activation, Hill fit on α(2.2.4.W)&β4

α4(α2DtoA)&β4 [6] = test system: T3, α4(α2DtoA)&β4; test: as above; format: cell-based, Homo sapiens; Mus musculus; details: no steroid, pH 7.3, Ba2+ saline, cRNA 20:1, read-out: ACh EC50; remark: listed apart in the source
α(4.4.2.F)&β4 = test system: T14, α(4.4.2.F)&β4; test: as above; format: cell-based, Homo sapiens; Mus musculus; details: no steroid, pH 7.3, Ba2+ saline, cRNA 20:1, read-out: ACh EC50
T14 construct: gene CHRNA4; alpha4 and alpha2 parts are one polypeptide: alpha4 to D(571)RIFL, alpha2 TM4, tail FLAGMI; cRNA 20:1, oocytes, 3alpha:2beta
Source text: two-electrode voltage clamp, agonist activation, Hill fit on α(4.4.2.F)&β4

α(4.4.2.F)&β2(WLAGMI) = test system: T15, α(4.4.2.F)&β2(WLAGMI); test: as above; format: cell-based, Homo sapiens; Mus musculus; details: no steroid, pH 7.3, Ba2+ saline, cRNA 8:1, read-out: ACh EC50
T15 construct: gene CHRNA4
Source text: two-electrode voltage clamp, agonist activation, Hill fit on α(4.4.2.F)&β2(WLAGMI)

α(4.4.2.W)&β4 = test system: T16, α(4.4.2.W)&β4; test: as above; format: cell-based, Homo sapiens; Mus musculus; details: no steroid, pH 7.3, Ba2+ saline, cRNA 20:1, read-out: ACh EC50
T16 construct: gene CHRNA4; one alpha polypeptide: alpha4 to D(571)RIFL, alpha2 TM4, tail WLAGMI (W as in alpha4); cRNA 20:1, oocytes, 3alpha:2beta
Source text: two-electrode voltage clamp, agonist activation, Hill fit on α(4.4.2.W)&β4

α4&β4 1:10 = target: T17, α4&β4 1:10 (Homo sapiens, UniProt P43681+Q8R493); test: as above; format: cell-based; details: read-out: ACh EC50
T17 construct: gene CHRNA4; full coding regions, cRNA 1:10 alpha:beta in Xenopus oocytes
T17 sequence (P43681 27-627): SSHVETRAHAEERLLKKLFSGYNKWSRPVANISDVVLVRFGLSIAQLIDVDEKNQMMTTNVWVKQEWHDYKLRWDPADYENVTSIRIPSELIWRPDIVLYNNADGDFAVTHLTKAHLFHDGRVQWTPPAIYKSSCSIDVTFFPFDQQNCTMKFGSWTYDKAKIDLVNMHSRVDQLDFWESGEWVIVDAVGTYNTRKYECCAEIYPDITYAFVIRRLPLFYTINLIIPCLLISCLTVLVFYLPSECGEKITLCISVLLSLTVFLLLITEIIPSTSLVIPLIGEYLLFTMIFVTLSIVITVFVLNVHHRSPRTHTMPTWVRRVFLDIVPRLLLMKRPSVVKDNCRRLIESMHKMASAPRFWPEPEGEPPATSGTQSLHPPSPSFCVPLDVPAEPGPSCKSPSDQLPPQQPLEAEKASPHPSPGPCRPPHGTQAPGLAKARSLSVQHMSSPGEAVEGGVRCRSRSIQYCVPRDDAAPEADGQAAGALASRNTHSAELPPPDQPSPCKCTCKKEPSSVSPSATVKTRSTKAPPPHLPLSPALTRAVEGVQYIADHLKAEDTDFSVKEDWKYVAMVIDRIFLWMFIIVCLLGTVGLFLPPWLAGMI
T17 sequence (Q8R493 21-495): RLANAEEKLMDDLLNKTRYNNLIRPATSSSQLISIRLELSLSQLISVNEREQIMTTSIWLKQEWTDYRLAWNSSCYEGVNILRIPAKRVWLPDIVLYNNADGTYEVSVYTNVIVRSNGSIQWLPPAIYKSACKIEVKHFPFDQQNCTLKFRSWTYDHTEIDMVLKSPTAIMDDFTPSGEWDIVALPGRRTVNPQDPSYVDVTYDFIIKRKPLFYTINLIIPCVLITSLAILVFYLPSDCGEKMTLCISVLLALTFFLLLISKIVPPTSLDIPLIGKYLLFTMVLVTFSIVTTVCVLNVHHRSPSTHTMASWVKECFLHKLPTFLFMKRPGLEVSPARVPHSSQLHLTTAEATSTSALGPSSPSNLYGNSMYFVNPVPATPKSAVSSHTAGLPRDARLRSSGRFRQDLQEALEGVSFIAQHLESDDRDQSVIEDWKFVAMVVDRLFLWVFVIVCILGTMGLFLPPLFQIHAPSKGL

T1 sequence (P43681 27-627): as the sequence (P43681 27-627) above
T1 sequence (Q8R493 21-495): as the sequence (Q8R493 21-495) above
T2 sequence (P43681 27-627 W622F): as the sequence (P43681 27-627) above, with W596F counted along it
T2 sequence (Q8R493 21-495): as the sequence (Q8R493 21-495) above
T10 sequence (P43681 27-627 W622F/L623W): as the sequence (P43681 27-627) above, with W596F, L597W counted along it
T10 sequence (Q8R493 21-495): as the sequence (Q8R493 21-495) above
T11 sequence (P43681 27-627 W622K): as the sequence (P43681 27-627) above, with W596K counted along it
T11 sequence (Q8R493 21-495): as the sequence (Q8R493 21-495) above

| Compound | EC50 (α4&β4 20:1 [1]) [µM] | EC50 (α4&β4 20:1 [2]) [µM] | EC50 (α4(α2DtoA)&β4 [3]) [µM] | EC50 (α(2.2.4.W)&β2) [µM] | EC50 (α(4.4.2.F)&β2) [µM] | EC50 (α(2.4.4.W)&β4) [µM] | EC50 (α2(W)(α4DtoA)&β4) [µM] | EC50 (α(4.2.2.F)&β4) [µM] | EC50 (α(2.2.4.W)&β2(WLAGMI)) [µM] | EC50 (α4&β4 20:1 [4]) [µM] | EC50 (α4&β4 20:1 [5]) [µM] | EC50 (α4(F)(α2DtoA+E)&β4) [µM] | EC50 (α(2.2.4.W)&β4) [µM] | EC50 (α4(α2DtoA)&β4 [6]) [µM] | EC50 (α(4.4.2.F)&β4) [µM] | EC50 (α(4.4.2.F)&β2(WLAGMI)) [µM] | EC50 (α(4.4.2.W)&β4) [µM] | EC50 (α4&β4 1:10) [µM] |
| --- | --- | --- | --- | --- | --- | --- | --- | --- | --- | --- | --- | --- | --- | --- | --- | --- | --- | --- |
| 19-norpregna-1,3,5(10)-trien-20-yne-3,17-diol, (17α)-(9CI) [17α-vinyl estradiol] | 3.84 ± 0.27 | 7.32 ± 0.68 |  |  |  |  |  |  |  |  |  |  |  |  |  |  |  |  |
| CC(=O)OCC[N+](C)(C)C [acetylcholine chloride] |  |  | […] | […] | […] | […] | […] | […] | […] | 14 ± 1 | 14 ± 2 | 16 ± 2 | […] | […] | […] | […] | […] | 14 ± 2.4 |
